Data on 10 compounds can be found in ChEMBL document CHEMBL1201862, “PubChem BioAssay data set” (2004).

Structures are written as SMILES.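 Five compound concentrations were applied to cells in 96-well plates for 48 hours; endpoints were derived by simple linear interpolation of the resulting dose-response curve. Here, GI50 denotes the concentration required for 50% inhibition of growth.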 Active and inactive are the calls of the source. No stated cut-off is given here; in the data, active = GI50 up to about 1.1 µM and inactive = higher.

Test in all cases: DTP human tumour cell line panel, 48 h
Test [1] has as its system A498.
The test system of test [2] is CAKI-1.
In test [3] the test system is CCRF-CEM.
Test [4] deals with HT-29.
The test system of test [5] is K562.
Test [6] relates to NCI-H460.
In test [7] the test system is NCI-H522.
Test [8] has as its system OVCAR-4.
Test [9] deals with OVCAR-5.
Test [10] deals with SF-268.
Test [11] has as its system SF-295.
Test [12] concerns SF-539.
The test system of test [13] is SK-OV-3.
Test [14] has as its system SN12C.
Test [15] has as its system SNB-19.
Test [16] concerns SW-620.
Test [17] concerns U-251.
Test [18] relates to ACHN.
The subject of test [19] is M14.
Test [20] deals with Malme-3M.

`O=C1C=C[C@@H](COC2OC(CO)C(O)C(O)C2O)O1` (some centres not stated): the GI50 in test [1] was 16.1 µM (inactive); in test [2] it was 17.9 µM (inactive); in test [3], 1.36 µM (inactive); in [4], 5.86 µM (inactive); in test [5] it was 3.42 µM (inactive); in test [6] it was 10.3 µM (inactive). The GI50 in test [7] was 5.14 µM (inactive); in test [8], 19 µM (inactive); in test [9] it was 22 µM (inactive); in test [10] it was 25.8 µM (inactive); in test [11] it was 18.1 µM (inactive); in test [12], 5.6 µM (inactive). Moreover, the GI50 in test [13] is 73.6 µM (inactive); in [14], 5.93 µM (inactive); in test [15] it was > 10 µM (inactive); in test [16] it was 3.78 µM (inactive); in [17], 15.7 µM (inactive).
For the compound `CC(=O)O[C@H]1C(=O)[C@@]2(C)[C@H]([C@H](OC(=O)c3cccc([N+](=O)[O-])c3)[C@]3(O)C[C@H](OC(=O)[C@H](O)[C@@H](NC(=O)c4ccccc4)c4ccccc4)C(C)=C1C3(C)C)[C@]1(OC(C)=O)CO[C@@H]1C[C@@H]2O`, the GI50 in test [1] was 0.005 µM (active); in [18], 0.151 µM (active); in [2], 0.241 µM (active); in test [3], 0.00479 µM (active); in test [4], 0.0043 µM (active); in test [5], 0.00482 µM (active). Further, the GI50 in test [19] was 0.00619 µM (active); in [6], 0.00601 µM (active); in test [7], 0.00362 µM (active); in test [8] it was 3.58 µM (inactive); in test [9] it was 0.0105 µM (active); in [10], 0.021 µM (active). Also, the GI50 in test [11] was 0.0155 µM (active); in [12] it was < 0.0025 µM (active); in test [13] it was 0.00703 µM (active); in test [14], 0.00695 µM (active); in test [15], 0.00652 µM (active); in test [16] it was 0.00706 µM (active). In addition, the GI50 in test [17] is 0.00681 µM (active).
`O=C1/C(=C\c2cccc(Oc3ccccc3)c2)SC(c2ccccc2)N1c1cccc([N+](=O)[O-])c1` (configuration not stated): the GI50 in test [1] is > 100 µM (inactive); in test [18] it was > 100 µM (inactive); in test [2], > 100 µM (inactive); in [3], 21.7 µM (inactive); in [4], 33.9 µM (inactive); in test [5] it was 36.6 µM (inactive). Besides, the GI50 in [19] is 65 µM (inactive); in test [20], > 100 µM (inactive); in [6], > 100 µM (inactive); in test [7] it was 57.5 µM (inactive); in [8], 70.3 µM (inactive); in test [9], > 100 µM (inactive). Also, the GI50 in test [10] was > 100 µM (inactive); in test [11], > 100 µM (inactive); in test [12], 25.1 µM (inactive); in test [13], > 100 µM (inactive); in [14], > 100 µM (inactive); in test [15], 65.3 µM (inactive). The GI50 in test [16] was 56.4 µM (inactive); in [17], 36.7 µM (inactive).
Turning to `COc1ccc(CNc2nc3cc(C(F)(F)F)ccc3nc2C)cc1OC`, the GI50 is 24.3 µM (inactive) in test [1]; 33 µM (inactive) in test [2]; 31.9 µM (inactive) in test [3]; 39.9 µM (inactive) in [4]; 29.1 µM (inactive) in test [5]; 20.3 µM (inactive) in test [19]. The GI50 was 20.1 µM (inactive) in test [20]; 30.1 µM (inactive) in test [6]; 21.9 µM (inactive) in test [7]; 12 µM (inactive) in [8]; 37.5 µM (inactive) in test [9]; 33.3 µM (inactive) in test [10]. Besides, the GI50 in test [11] was 34.4 µM (inactive); in test [12], 29.2 µM (inactive); in test [13] it was 36.7 µM (inactive); in [14], 30.5 µM (inactive); in test [15], 41.6 µM (inactive); in test [16], 37.9 µM (inactive). Also, the GI50 in test [17] is 37 µM (inactive).
In the case of `CCCn1c(CN(Cc2nc3ccccc3n2CCC)Cc2nc3ccccc3n2CCC)nc2ccccc21`, the GI50 in [1] was 4.74 µM (inactive); in test [18] it was 2.11 µM (inactive); in test [2], 2.81 µM (inactive); in test [3], 2.76 µM (inactive); in test [4], 2.25 µM (inactive); in [5], 1.23 µM (inactive). Further, the GI50 is 2.46 µM (inactive) in test [19]; 4.94 µM (inactive) in test [20]; 3.27 µM (inactive) in [6]; 4.63 µM (inactive) in test [7]; 3.73 µM (inactive) in test [8]; 6.07 µM (inactive) in [9]. Further, the GI50 in [10] was 3.99 µM (inactive); in test [11], 8.55 µM (inactive); in [12], 4.2 µM (inactive); in test [13], 41.5 µM (inactive); in [14], 2.01 µM (inactive); in test [15] it was 7.01 µM (inactive). For the same compound, the GI50 was 5.11 µM (inactive) in test [16] and 3.97 µM (inactive) in [17].
With `CC(=O)Nc1cc2c(cc1O)CC[C@@H]1[C@@H]2CC[C@]2(C)[C@@H](O)CC[C@@H]12`, the GI50 in test [1] was 24.1 µM (inactive); in test [18] it was 41.6 µM (inactive); in test [2], 84.1 µM (inactive); in test [3], 23.9 µM (inactive); in test [4], 30.4 µM (inactive); in [5], 23.5 µM (inactive). The GI50 is 39.4 µM (inactive) in test [19]; 21.8 µM (inactive) in test [20]; 34.8 µM (inactive) in [6]; 20.8 µM (inactive) in test [7]; > 100 µM (inactive) in [8]; 86.9 µM (inactive) in [9]. Besides, the GI50 in [10] was 13.1 µM (inactive); in [11] it was 31.3 µM (inactive); in test [12], 34.5 µM (inactive); in test [13] it was > 100 µM (inactive); in [15] it was > 100 µM (inactive); in test [16], 27.7 µM (inactive). Also, the GI50 in test [17] is 42 µM (inactive).
Take `CC(O)C(O)C(N)CC=O` (configuration not stated): the GI50 in [1] was 36.1 µM (inactive); in [2], > 500 µM (inactive); in test [3], > 500 µM (inactive); in test [4], > 500 µM (inactive); in [5], > 500 µM (inactive); in [20] it was > 500 µM (inactive). The GI50 in [6] is > 500 µM (inactive); in [7], 79.3 µM (inactive); in [8], > 500 µM (inactive); in test [9] it was 175 µM (inactive); in test [10], > 500 µM (inactive); in test [11] it was > 500 µM (inactive). In addition, the GI50 was > 500 µM (inactive) in [12]; > 500 µM (inactive) in [13]; > 500 µM (inactive) in [14]; > 500 µM (inactive) in [15]; > 158 µM (inactive) in test [16]; > 500 µM (inactive) in test [17].
Take `COc1cc(Nc2nc3cc(C(F)(F)F)ccc3n3cccc23)cc(OC)c1OC`: the GI50 in test [1] was > 100 µM (inactive); in test [18], > 100 µM (inactive); in [2] it was > 100 µM (inactive); in test [3], 4.54 µM (inactive); in test [5], > 100 µM (inactive); in test [19], 17.8 µM (inactive). Besides, the GI50 in [20] was > 100 µM (inactive); in test [7], > 100 µM (inactive); in [9], > 100 µM (inactive); in test [10], > 100 µM (inactive); in test [11], 5.02 µM (inactive); in [12], > 100 µM (inactive). In addition, the GI50 was > 100 µM (inactive) in test [13]; 32.4 µM (inactive) in [14]; > 100 µM (inactive) in test [15]; > 100 µM (inactive) in test [16]; > 100 µM (inactive) in test [17].
`Cc1ccc(/C=C2\CN(C)CC3=C2N=C(S)NC3c2ccc(C)cc2)cc1` (configuration not stated): the GI50 was > 100 µM (inactive) in test [1]; 40.7 µM (inactive) in test [18]; > 100 µM (inactive) in [2]; 30.1 µM (inactive) in test [3]; 30.8 µM (inactive) in test [4]; 23.3 µM (inactive) in [5]. For the same compound, the GI50 in [19] is 27.3 µM (inactive); in [20] it was 47.3 µM (inactive); in [6], 37.6 µM (inactive); in test [7] it was 39.5 µM (inactive); in test [8], 14 µM (inactive); in [9], > 100 µM (inactive). Moreover, the GI50 in test [10] is 44.4 µM (inactive); in test [11], 36.9 µM (inactive); in test [12], 39 µM (inactive); in test [13], > 100 µM (inactive); in test [14], 32.7 µM (inactive); in test [15] it was 73.5 µM (inactive). For the same compound, the results for the GI50 in test [16] and in test [17] were 61.2 µM (inactive) and 42.8 µM (inactive), respectively.
For `O=C(CCl)NC(Cc1ccc(F)cc1)C(=O)O` (configuration not stated), the GI50 in [1] was > 100 µM (inactive); in [2], > 100 µM (inactive); in test [3], > 100 µM (inactive); in test [4], > 100 µM (inactive); in [5], > 100 µM (inactive); in [20] it was 69.3 µM (inactive). Further, the GI50 in [6], in test [7], in [8], in test [9], in test [10] and in test [11] was > 100 µM (inactive) in each case. Further, the GI50 in [12], in [13], in test [14], in test [15], in [16] and in [17] was > 100 µM (inactive) each time.
